One data set deals with blood brain barrier. Put plainly: Rabbit meningitis model: CSF protein and lactate (blood brain barrier permeability). It is filed as in vivo. As for the experimental part: (§1) The rabbit model was performed according to an established protocol. Specific pathogen free, New Zealand white rabbits (2 kg; Hare Marland, Nutley, N.J.) were anesthetized with valium (2.5 mg/kg, subcutaneously, Hoffman-LaRoche, Nutley, N.J.), ketamine (35 mg/kg, intramuscularly, Aveco, Fort Dodge, Iowa) and xylazine (5 mg/kg, intramuscularly, Miles Laboratories, Shawnee, Kans.) and a helmet of dental acrylic was affixed to the calvarium. Twenty four hours later, the rabbits were anesthetized with ethyl carbamate (1.75 g/kg; Aldrich Chemical Co., Milwaukee, Wis.) and pentobarbital (15 mg/kg; Abbott Laboratories, Abbott Park, Ill.) and placed in a stereotaxic frame. A spinal needle was introduced into the cisterna magna and 300 μl of CSF was withdrawn. The animals were challenged intracisternally with 10^8 heat killed, unencapsulated pneumococcus strain R6 introduced in 200 μl of saline (time 0). One hour later, animals were treated with peptides dissolved in 1 ml of saline by intravenous injection into the right marginal ear vein. The concentration of FHA was 0.1 μM and that of the FHA Ia, Factor X II, and scrambled FHA II peptides was 10 μM. For the acetyl-FHA II, acetyl/amide-FHA II, dimer of FHA II and trimer of FHA II peptides, the concentration was 10^-3 μM. The concentration of FHA II is given in the results section. Samples of CSF were withdrawn at hourly intervals after pneumococcal inoculation and leukocyte density was measured using a cell counter (Coulter Electronics Inc., Hialeah, Fla.). CSF samples were centrifuged at 10,000×g for 5 minutes and the supernatant was stored at -70° C. until assayed for protein concentration using the bicinchoninic acid method (BCA Kit, Pierce Chemical Co., Rockford, Ill.) and for lactate concentration (Lactate Detection Kit, Sigma, St. Louis, Mo.). Statistically significant differences between treatments were determined by a one way analysis of variance test.
Loss of barrier function of the cerebral capillary endothelium during inflammation is reflected by an influx of serum proteins into the CSF. […] To examine if the peptides were able to ameliorate these measures of cerebral injury, CSF protein and lactate concentrations were measured hourly in peptide-treated and control animals (Table 10).
Leukocyte migration into the CSF in bacterial meningitis is associated with loss of barrier function of the cerebral capillary endothelium, resulting in influx of serum proteins into the CSF. To determine whether FHA peptides were able to prevent this leukocyte-dependent injury, protein concentrations in the CSF were measured throughout the course of inflammation in peptide-treated and control animals.

Data set [1] can be described thus: Peripheral white blood cells in rats. The conditions noted are these: rat, in vivo. The protocol:
(§2) Three hours after LOS inoculation, 5 μCi of ^125 I-radiolabelled albumin in 50 μl normal saline was administered intravenously. One hour later, CSF was collected via intracisternal puncture and blood samples were collected via intracardiac puncture. CSF leukocytosis was determined by manually counting white blood cells using a hemacytometer, and blood-brain barrier permeability was determined as the percent of radioactivity in whole blood that was present in the CSF. Blood samples were obtained immediately prior to inoculation, immediately prior to treatment, and at 4 hours post-inoculation for determination of peripheral white blood cell concentrations.

The subject of another data set is blood-brain barrier. Nature of the data set: Rat meningitis model (LOS): blood-brain barrier permeability. It is filed as in vivo. The protocol:
Briefly, anesthetized female Wistar rats were placed under a micromanipulator and inoculated intracisternally with a 25 gauge needle. After removal of 50 μl of CSF (without visible blood contamination), rats were inoculated intracisternally with 50 μl (20 ng) of LOS using a 1 ml syringe with a 25 gauge needle. Ten to fifteen minutes after inoculation with LOS, the rats were treated by intravenous administration of the test substance: a solution of an FHA peptide in PBS, a solution of a control peptide in PBS, or an equal volume of PBS alone.
as §2

The test system of the next data set is neutrophils. Nature of the data set: Transendothelial migration of neutrophils. It is filed as cell-based, human. The protocol: Transendothelial migration of neutrophils was studied based on a method described by Muller et al. (1992), J. Exp. Med. 176: 819-828. Briefly, human neutrophils suspended in ice-cold Hanks balanced salt solution (HBSS) containing Ca^++ and Mg^++ (Sigma) were fluoresceinated by adding 3.3 μl/ml 5-(and 6-)carboxyfluorescein diacetate, succinimidyl ester (CFSE, Molecular Probes Inc., Oreg.). After incubation for 30 mins. on ice, neutrophils were washed twice in cold HBSS with Ca^++ and Mg^++ and resuspended in cold Medium 199 (M199, Sigma) to a final concentration of 10^6 /ml. Human umbilical vein endothelial cells were subcultured at confluence into 96-well tissue culture plates (Becton Dickinson Labware, Lincoln Park, N.J.) that were coated with hydrated collagen gel (Vitrogen; Collagen Corporation, Palo Alto, Calif.) and fibronectin. Endothelial cells were stimulated with 10 ng/ml TNF-alpha for 4 hours and washed three times with warm M199. Neutrophils (10^6 /ml) were preincubated with 0.01 mM of peptides or with 1 μM of native FHA in M199 for 5 mins. on ice before they were added in 100 μl aliquots to the endothelial cells. For positive control, neutrophils were pre-incubated with 25 μg/ml anti-CD18 mAb IB4. For negative control, neutrophils were treated with 25 μg/ml mAb W6/32 against HLA class I antigen (Dako, Carpinteria, Calif.). The cells were incubated for 1 hour at 37° C., 5% CO2. To terminate transmigration, the supernatant fluid was aspirated and the wells were filled with warm 1 mM EGTA (Sigma) in HBSS without Ca and Mg. The plates were covered with plate sealers (Dynatech, Alexandria, Va.) and centrifuged in an inverted position at 250 g for 3 mins. at room temperature. To remove residual non-transmigrated neutrophils from the endothelial cells, monolayers were washed twice with 200 μl of warm Hanks solution without Ca and Mg. Fluorescence was quantitated using a fluorescence counter (Millipore Cytofluor™ 2300). The percentage of transmigrated neutrophils was determined by comparing the amount of fluorescence of test wells with that measured in collagen- and fibronectin-coated wells without endothelial cells. […] Percent inhibition of transendothelial migration of neutrophils was calculated by comparing the number of transmigrated cells in wells containing neutrophils treated with peptide to neutrophils treated with M199 alone and arbitrarily set at 100% transendothelial migration (TEM).
(§3) The procedures for determining the neutrophil adherence to cultured endothelial cells and the transendothelial migration of neutrophils were identical with those of Example 9. Control values were the same as those shown in Example 9.

Another data set concerns leukocytes in CSF. Nature of the data set: Rabbit meningitis model: leukocyte migration into CSF. It counts as in vivo. As for the experimental part: as §1
The anti-inflammatory effects of the administered peptides were assessed in the rabbit model for meningitis by the procedures described in Example 10. The animals received 1 ml of 1 uM peptide intravenously. In a slight departure from the protocol described in Example 10, samples of blood were drawn from the left marginal ear vein 30 minutes after the administration of the peptides to determine peripheral leukocyte concentrations.

The subject of another data set is cerebral infarct. Nature of the data set: Rat transient middle cerebral artery occlusion: infarct volume. The conditions noted are these: 2 hours MCAo; 50 nmol i.v. plus 150 nmol i.p. boluses; 48 hours. It counts as in vivo.
Data set [2] deals with human umbilical vein endothelial cells. Nature of the data set: Adherence of neutrophils to cultured (TNF-stimulated) endothelial cells. It is filed as cell-based. The protocol:
Human umbilical vein endothelial cells (HUVEC, first passage, Clonetics, San Diego, Calif.) were subcultured at confluence into Terasaki tissue culture wells. After 24 hours, confluent monolayers were used for adherence assays. Monolayers were stimulated with 10 ng/ml TNF alpha (Boehringer Mannheim, Indianapolis, Ind.) at 37° C. for four hours. 30 μl of human neutrophils (10^6 /ml) were labeled with fluorescein by the method of Lo et al. (1991), J. Exp. Med. 173 1493-1500, and preincubated for 15 minutes at 37° C. with 20 μl of peptides (0.5 mM in HAP) or HAP (phosphate buffered saline containing 0.5 mg/ml human serum albumin, 3 mM glucose, and 0.3 U/ml aprotinin) as a control buffer. For some experiments, endothelial cells were pretreated from 10 minutes with Factor X or antibodies against Factor X receptor (EPR-1; Altieri et al. (1990), J. Immunol. 145, 246-253) 12H1 and 9D4 (obtained from Dr. D. Altieri, Scripps Research Institute, Lajolla, Calif.) and then washed. Neutrophils were allowed to adhere to the monolayer for 15 mins. at 37° C. and unbound cells were removed by submersion of the plate in PBS buffer. The number of adherent neutrophils was counted in a 40× microscope field and expressed as a percentage of adherence in control wells with neutrophils treated with HAP buffer alone. The mAb IB4 against CD18 (50 μg/ml; Merck Inc., Rahway, N.J.) served as a positive control.
as §3

From patent US6015560A, “Antibody recognizing endothelial cell ligand for leukocyte CR3” (priority 1995, dated 2000) come the findings set out here.

As to RGDPHQGVLAQGDIIMDAKG [FHA Ca], the “Total protein in CSF” value with blood brain barrier (6 hours) turned out to be 1.18 ± 0.39 mg/mL; in the data set on blood brain barrier (7 hours), 1.69 ± 0.41 mg/mL. Also, the neutropenia entry in data set [1] was “No neutropenia”. Besides, the BBB permeability in the data set with blood-brain barrier (100 nmol i.v., radioactivity in CSF of that in whole blood) turned out to be 3.0%. The “inhibition of blood-brain barrier permeability (in words)” value with blood-brain barrier (rat, in vivo) is “dose dependent”. Further, the “concentration required for inhibition of transendothelial migration similar to native FHA (82%)” value in the data set with neutrophils came out at 10 µM. Besides, the “leukocyte migration into CSF (in words)” value with leukocytes in CSF (0.1 μM peptide i.v.) was “significantly reduced leukocyte migration into the CSF”. In addition, the “leukocyte density in CSF” value in the data set on leukocytes in CSF (7 hours, 1 ml of 1 uM peptide i.v.) is reported as 2137±1498 cells/μl CSF. Also, the infarct volume entry with cerebral infarct is “approximately 25 % of the hemisphere”. In data set [2], the “concentration at which loss of activity (≤20% inhibition) occurred” value amounted to 1 µM. The “inhibition of neutrophil adherence to endothelial cells” value in data set [2] (0.5 mM) is on record as 47±7%. In data set [2] (concentration dependence), the “maximal inhibition of neutrophil attachment” value is ~ 50%.
